Results as given in PubChem BioAssay AID179 (DTP/NCI, 2004).
pEC50, pIC50: −log10 of the molar value. Active and inactive are the calls of the source.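 The calls were made as follows: active = compounds giving half or more protection of infected cells from virus-caused growth loss, again on retest; inactive = the rest.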

System: CEM cells HIV-1 protection, formazan growth assay
Test: NCI AIDS Antiviral Assay
Conditions: for pIC50: measured here: growth of uninfected CEM cells
Summary of the method: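 Steps: treat uninfected and HIV-1-infected human CEM cells at five drug levels; quantify growth by soluble formazan; retest any compound reaching 50% protection; classify actives from the retest.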

Structure (SMILES)	pEC50	pIC50	outcome
COc1cc([N+](=O)[O-])cc2c1NC(=O)C2(C)SC (configuration not stated)	< 3.70	4.51	
CC(=O)N1N=C(C)C2ON=C(c3ccc(Cl)cc3)P21 (configuration not stated)			inactive
COc1c(Cl)cc(Cc2cc(Cl)c(OC)c([N+](=O)[O-])c2)cc1[N+](=O)[O-]	< 3.70	< 3.70	
Cc1cccc(C)c1NC(=O)CCC(=O)NC(N)=S	< 3.47	< 3.47	
COc1cc([C@@H]2c3cc4c(c(O)c3C[C@H]3COC(=O)[C@@H]32)OCO4)cc(OC)c1OC	< 7.70	8.51	
O=[N+]([O-])c1cccc(N=Cc2ccc(Cl)cc2)c1	< 3.70	3.91	
O=[N+]([O-])c1ccc(Sc2c3ccccc3nc3cc(Cl)ccc23)cc1	< 5.40	< 5.40	
C=C=CC(C)(O)c1ccc(-c2ccccc2)cc1 (configuration not stated)	< 3.72	4.34	
Cc1nc(C)c(C(=O)Nc2cccc3c2C(=O)NC3=O)cc1C(=O)Nc1cccc2c1C(=O)NC2=O	< 3.71	< 3.71	
Cc1ccc(Cc2n[nH]c(=O)n2Nc2ccccc2)cc1	< 3.70	< 3.70	
CC(C)(C)c1cc(C(C)(C)O)c2c(c1)C(C)(C)OS2(C)Cl (configuration not stated)	< 3.70	3.95	
O=C(c1cc(Cl)c(O)c(C(=O)O)c1)c1cc(Cl)c(O)c(C(=O)O)c1	< 4.21	4.25	
Cc1c(C)n2c(=O)n(-c3ccccc3)c(=O)n2c1=O	< 3.01	3.21	
O=C(N/N=C/c1ccccc1O)c1ccccc1O	< 4.70	5.63	
CC(C)(C)OC(=O)N[C@@H](Cc1ccccc1)CN1CCCC1C(=O)O (some centres not stated)	< 2.47	2.59	
CCCCSc1nc2c(=O)[nH][nH]c(=O)c2n1Cc1ccccc1	< 3.70	3.80	
Clc1cccc(Cl)c1C1SCc2nc3ncccc3n21 (configuration not stated)	4.49	3.98	
CN(C)c1ccc(C(Cc2ccccc2)C2NC(=S)NC2=O)cc1 (configuration not stated)	< 3.70	4.81	
CCCc1cc(=O)oc2c3c(cc(OC(C)CC)c12)O[C@H](C)[C@@H](C)C3=O (some centres not stated)	< 4.22	4.85	
c1ccc2sc(SSc3nc4ccccc4s3)nc2c1	< 3.70	< 3.70	
COc1ccc2c3csc4ccccc4c-3nc2c1	< 3.70	6.37	
O=S(=O)(NC1CCCCC1)c1ccc2c(c1)OCCOCCOCCOCCO2	< 3.70	< 3.70	

Structure (SMILES)	pEC50	pIC50	outcome
CCOC(OCC)C(CC)[Se]c1ccccc1 (configuration not stated)	< 4.06	< 4.06	
OC1(c2ccccc2)OC(C#Cc2ccccc2)(c2ccccc2)c2ccccc21 (configuration not stated)			inactive
Cc1cc(NC(=O)c2ccc(NC(=O)c3ccccc3)cc2)ccc1N=Nc1ccc(N=Nc2ccc3c(O)cc(S(=O)(=O)O)cc3c2)c2cc(S(=O)(=O)O)ccc12	5.21	4.30	
Cc1cn(C2CC(F)C(CO)O2)c(=O)[nH]c1=O (configuration not stated)	7.96	5.70	
Cc1cc(Cl)ccc1NC(=O)/C(=N\NC(C)(C)C)C(C#N)c1nc(-c2ccc([N+](=O)[O-])cc2)cs1 (configuration not stated)	5.58	4.99	
S=c1[nH]nc(-c2ccccc2)n1/N=C\c1ccc(-c2ccc(Cl)cc2)o1	< 5.28	< 5.28	
CCN(CC)CCn1c2cc3c(cc2c(=O)c2cccnc21)OCCO3	< 3.70	5.18	
COc1c(Cl)cc(C(=Cc2c(F)c(F)c(F)c(F)c2F)c2cc(Cl)c(OC)c(C(=O)O)c2)cc1C(=O)O	3.49	3.31	
CC(C)(C)Cc1cc(O)ccc1O	< 5.22	5.47	
CCOC(=O)C(=CN1CC(=O)NC1=S)C(=O)OCC	< 3.70	< 3.70	
COc1ccc(C2=[N+]([O-])c3ccccc3C2=O)cc1			inactive
COc1cccc(CC2C(=O)NC(=O)NC2=O)c1	< 3.70	< 3.70	
O=C1c2ccccc2Sc2ccccc2N1CCCCCCN1CCN(c2ccc(F)cc2)CC1	< 3.70	4.98	
Cc1ccc(N=Nc2c(O)c(S(=O)(=O)O)cc3cc(S(=O)(=O)O)ccc23)c(C)c1			inactive
O=[N+]([O-])c1ccccc1SCc1ccccc1	< 4.26	4.30	
CC1=NN(C(=O)CC(=O)Nc2ccc(C)cc2)C(=O)C1N=Nc1ccc(S(N)(=O)=O)cc1 (configuration not stated)	< 6.20	< 6.20	
COc1cccc(OC)c1NC1=NCCO1	< 3.70	3.92	
CCC[CH2][Sn]([CH2]CCC)([O]C(=O)c1ccc(C)c(N)c1)[O]C(=O)c1ccc(C)c(N)c1	< 4.73	6.34	
Cc1nc2c(=O)[nH]c3ccccc3c2o1	< 3.70	< 3.70	
CC(=O)OCC1OC(OC(C)=O)C(Nc2ncc(-c3ccc(C)cc3)s2)C(OC(C)=O)C1OC(C)=O (configuration not stated)	< 3.70	4.88	
COc1ccc(CCN2C(=O)c3cccc4c(Sc5ccccc5[N+](=O)[O-])ccc(c34)C2=O)cc1OC	< 3.70	< 3.70	
CCC(C)[C@H](NC(=O)[C@H](Cc1ccccc1)NC(=O)N(CC)c1ccccc1)C(=O)N[C@@H](CC(C)C)C(=O)OC (some centres not stated)			inactive

Structure (SMILES)	pEC50	pIC50	outcome
O=C1C(c2ccccc2)=C(c2ccccc2)[C@H](c2ccccc2)[C@]1(Cc1nnn(-c2ccc([N+](=O)[O-])cc2)c1N1CCOCC1)c1ccccc1			inactive
CC1=NN(C(=O)c2ccc(Cl)cc2)C(=O)/C1=C/c1ccc(O)cc1	< 4.82	< 4.82	
CC(CCC(=O)O)[C@H]1CCC2[C@H]3C(CC(=O)[C@@]21C)[C@@]1(C)CCC(O)C[C@H]1C[C@@H]3O (some centres not stated)	< 3.70	< 3.70	
CCCCCCCCCCCCCCCCOCC(Cl)COP(=O)(O)OP(=O)(O)OCC1OC(n2cc(C)c(=O)[nH]c2=O)CC1O (configuration not stated)	< 3.84	3.91	
CC1NC(=O)c2cc(=O)[nH]c(O)c21 (configuration not stated)	< 3.29	3.40	
CCOC(=O)NC(N(C)C(C(C)C)P(=O)(OCC)OCC)(C(F)(F)F)C(F)(F)F (configuration not stated)	< 3.70	< 3.70	
CCCC(=O)Oc1ccc2c(C)cc(=O)oc2c1OC(=O)CCC	< 3.70	4.11	
S=C1SC(=Nc2ccccc2)C(=Nc2ccccc2)N1c1ccccc1	< 3.70	4.04	
COc1ccc(Nc2cnc3cc(N)ccc3n2)cc1OC	< 3.22	4.37	
O=[N+]([O-])c1cc(Cc2cc(Cl)c(O)c([N+](=O)[O-])c2)cc(Cl)c1O	< 3.70	4.45	
COC(=O)C(NC(=O)C(CC(=O)OC(C)(C)C)NC(=O)OC(C)(C)C)C(O)c1ccccc1 (configuration not stated)	< 3.70	< 3.70	
CC(=O)O[C@]12CCCCC1C1(O)C(O)CCCCC12 (some centres not stated)	< 3.70	< 3.70	
O=Nc1c[nH]c(=O)[nH]c1=O	< 3.70	< 3.70	
COC(CNC(=O)NC(=O)CCC(=O)O)[CH2][Hg][n]1cnc2c1c(=O)n(C)c(=O)n2C (configuration not stated)	< 3.70	4.07	
CCOC(=O)C1=C(O)C(=O)NC(C(=O)OCC)=C(c2ccccc2)C1	< 4.30	< 4.30	
Cc1ccc(S(=O)(=O)CNC(=S)CCCC(=S)NCS(=O)(=O)c2ccc(C)cc2)cc1			inactive
COc1cc(CC2c3cc(OC)c(OC)cc3CCN2C)c(Oc2cc3c(cc2OC)-c2c(O)c(OC)cc4c2C(C3)N(C)CC4)cc1OC (configuration not stated)			inactive
C(=C\c1ccccc1)/c1ccccc1	< 3.70	< 3.70	
CN1C2c3ccccc3C3C4c5ccccc5C(C31)C(C2[N+](=O)[O-])N4C (configuration not stated)	< 4.36	4.56	
NC1CN(C(COCc2ccccc2)c2ccc(OCc3ccccc3)cc2)C1=O (configuration not stated)			inactive
CC(=O)OC(C)(C)C1CC[C@]2(C)/C=C/C(C)C[C@@H](O)/C=C(\C)CC(O)C12 (some centres not stated)			inactive
COc1ccc(CCCNC(=O)Cc2ccccc2CO)cc1OC	< 3.70	< 3.70	

Structure (SMILES)	pEC50	pIC50	outcome
N#C/C(=C\N1CCNC1=S)c1nc2ccccc2s1	< 3.70	< 3.70	
CC1(C)CNC[C@](C)(OCc2ccccc2)C(=O)[N-]C(C)(C)CNC[C@@](C)(OCc2ccccc2)C(=O)[N-]1.[Ni+2]	< 3.70	3.82	
CCOC(=O)C1N(S(=O)(=O)c2ccc(C)cc2)CCC12c1ccccc1N(C(C)=O)C2c1ccc(OC)c(OC)c1 (configuration not stated)			inactive
NS(=O)(=O)c1ccc2c(c1)OCCOCCOCCOCCO2	< 3.70	< 3.70	
Cc1ccccc1NC(=O)C(=O)C(C1OC(=O)c2ccccc21)[N+](=O)[O-] (configuration not stated)	< 3.15	3.47	
CC(=O)OCC1OC(n2c(=O)[nH]c(=O)c3sccc32)C(Br)C1OC(C)=O (configuration not stated)	< 3.70	< 3.70	
C[N+](C)(C)C1(C(=O)[O-])CC1	< 3.70	< 3.70	
C[C@H]1S[C@H](c2c(F)cccc2F)n2c1nc1ccccc12	< 3.70	4.47	
CN1CCC23c4ccccc4NC1C21CCN(C)C3Nc2ccccc21	< 3.14	3.21	
CCOC(=O)C(NC(=O)CC)(C(F)(F)F)P(=O)(OCC)OCC (configuration not stated)	< 3.70	< 3.70	
O=c1cc(CO)oc2c3c(cc(O)c12)OCC(COC1OC(CO)C(O)C(O)C1O)=CC3 (configuration not stated)	< 3.26	3.54	
COc1ccc(C2CCc3cc4c(cc3/C2=N/OC(C)=O)OCO4)cc1OC (configuration not stated)			inactive
NC(c1ccccc1)P(=O)(O)O (configuration not stated)	< 3.70	< 3.70	
CCN(CC)c1ccc2c(C)cc(=O)oc2c1	< 3.66	3.98	
COCN1C(=O)[C@@H]2C[C@@H](O)CN2C(=O)c2ccccc21	< 3.70	< 3.70	
CC1=CC(C)(C)Nc2ccc(OC(=O)/C=C(C)/C=C/C=C(C)/C=C/C3=C(C)CCCC3(C)C)cc21	< 3.70	4.56	
COc1ccc2nc3cc(Cl)ccc3c(NCCCN(Cc3cc(OC)c(OC)c(OC)c3)Cc3cc(OC)c(OC)c(OC)c3)c2c1			inactive
O=C(CS(=O)(=O)c1ccccc1)c1ccccc1	< 3.46	3.60	
COC(=O)C(=Cc1cc(OC)c(OC)c(OC)c1-c1cc2c(cc1C1(C)OCCS1)OCO2)C(=O)OC (configuration not stated)	< 4.73	4.81	
